Test results from patent US5179089A, “Isoquinoline compounds, compositions and use” (Chinoin Gyogyszer es Vegyeszeti Termekek Gyara Rt., priority 1990, dated 1993).
Where a name gives a salt, the structure may show the parent alone. Read-outs that look alike come from different tables or passages of the source. Each block holds one molecule with its values, some of them ahead of it.

Columns and labels:
[1] = tested on: active local anaphylactic reaction; test: Effect influencing the active local anaphylactic reaction on rat; assay type: in vivo, rat (female OFA); conditions: for Percentage of inhibition of the active local anaphylactic reaction: oral dose of 50 mg/kg, 30th minute after induction
Description: 1) The effect influencing the active local anaphylactic reaction was measured according to the method of M. Koltay [Arch. Allergy App. Immun. 71, 181 (1983)].
Female OFA rats weighing 160 to 180 g each were sensitized by bovine serum albumin (BSA) adsorbed to 50 μg of Al(OH)3 gel together with the simultaneous administration of Bordatella pertussis vaccine.
The anaphylactic reaction was elicited by injecting 100 μg of BSA into the right hind paw plant in the 14th day.
The measurements were carried out before and 30 minutes after eliciting the reaction. The animals were orally treated with the compound to be tested 1 hour before the injection of BSA. The results were expressed as percentage inhibition compared to the control group (average %±S.E.M.).

[2] = tested on: carrageenin-induced rat paw edema; test: Carrageenin-induced rat paw edema test; assay type: in vivo, rat (female CFY); conditions: for Protective effect %: oral dose 20 mg/kg (Naproxen); for change in vivo at 50 mg/kg: Rattus norvegicus, po, 50 mg/kg (p.o.), read-out: Percentage of the protective effect
Description: Proc. Soc. Exp. Med. 111, 544 (1962)]. Female CFY rats weighing 100 to 120 g each were used after starvation for 24 hours. The inflammation was induced by injecting 0.1 ml of 1% carrageenin solution into the right hind paw plant. The severity of inflammation was determined by using an Ugo-Basile type plethysmometer. The measurement was carried out before and 1.5, 3 and 4.5 hours after induction of the inflammation. The animals were orally treated with the substance to be tested 1 hour before administration of carrageenin. The effect was expressed as percentage inhibition related to the control group.

[3] = tested on: dextran-induced rat paw edema; test: Dextran-induced rat paw edema test; assay type: in vivo; conditions: for Percentage of inhibition: 50 mg/kg (p.o.)
Description: 3) Dextran-induced rat paw edema test The method of S. Gourvaisier and R. Ducrot [Arch. Int. Pharmacodyn. Ther. 102, 33 (1955)] was employed. The method described for the carrageenin edema test was followed, except that the measurements were carried out 30, 60, 90, 120 and 180 minutes after induction of the inflammation.

[4] = tested on: acetylcholine-induced constriction of the isolated tracheal smooth muscle of the guinea pig; test: Inhibition of the acetylcholine-induced constriction of isolated tracheal smooth muscle of guinea pig; conditions: Cavia porcellus, 0.25 h, isolated guinea pig trachea, read-out: pd'2 value against acetylcholine (converted)
Description: (§1) I Study on the Effects Against Spasmogenic Mediators
[modified method of J. C. Castillo et al.: Exp. Ther. 90, 104 (1947)]
(§2) The investigation on isolated organs were carried out as follows.
(§3) OHF Lt/R9 guinea pigs of both sexes weighing 300 to 400 g each were anaesthetized by pentobarbital. Their trachea was removed and sectioned in the opposite side to the site of smooth muscle in longitudinal direction. Subsequently, a strip-like preparation was obtained by serrately cutting.
The organ was suspended in an organ bath containing 35 ml of Krebs solution at 37° C. bubbled through by carbogen gas (consisting of 95% of oxygen and 5% of carbon dioxide).
(§4) A rest load of 0.5 g was used. Several washings were carried out during the incubation period of 30 minutes.
(§5) The change in the tension of the tracheal smooth muscle was followed by using an isometric Grass FT-03 type tensiometer sensor device. A washing was made following the cumulative dose series of the given mediator (e.g. histamine). After reaching the base line, by 15 minutes after administration of the given concentration of the inhibitory (antiasthmatic) substance to be tested, the next cumulative dose series of the mediator was administered. In the case of an inhibitory action, the strength of effect, following the second dose series of the mediator, was […] in comparison to that of the first (control) series.
For characterization of strength of the competitive antagonistic effect the pA2 value was determined according to the method of Schield [Br. J. Pharmacol. 4, 277 (1949)]. A pd'2 value was calculated [J. M. Van Rossum: Arch. Int. Pharmacodyn 143, 317 (1963)] to characterize the noncompatitive antagonistic effectivity. The higher the pA2 or pd'2 value, respectively were, the higher was the antagonistic effect.

[5] = tested on: histamine-induced constriction of isolated tracheal smooth muscle of guinea pig; test: Inhibition of the histamine-induced constriction of isolated tracheal smooth muscle of guinea pig; conditions: Cavia porcellus, 0.25 h, isolated guinea pig trachea, read-out: Inhibition of the histamine-induced constriction of isolated tracheal smooth muscle of guinea pig pd'2 (converted)
Description: I Study on the Effects Against Spasmogenic Mediators [modified method of J. C. […] The investigation on isolated organs were carried out as follows. OHF Lt/R9 guinea pigs of both sexes weighing 300 to 400 g each were anaesthetized by pentobarbital. Their trachea was removed and sectioned in the opposite side to the site of smooth muscle in longitudinal direction. Subsequently, a strip-like preparation was obtained by […] cutting. […] A rest load of 0.5 g was used. Several washings were carried out during the incubation period of 30 minutes. The change in the tension of the tracheal smooth muscle was followed by using an isometric Grass FT-03 type tensiometer sensor device. A washing was made following the cumulative dose series of the given mediator (e.g. histamine). After reaching the base line, by 15 minutes after administration of the given concentration of the inhibitory (antiasthmatic) substance to be tested, the next cumulative dose series of the mediator was administered. In the case of an inhibitory action, the strength of effect, following the second dose series of the mediator, was […] in comparison to that of the first (control) series. For characterization of strength of the competitive antagonistic effect the pA2 value was determined according to the method of […] A pd'2 value was calculated [J. M. Van Rossum: Arch. Int.

[6] = tested on: serotonin-induced constriction of the isolated tracheal smooth muscle of the guinea pig; test: Inhibition of the serotonin-induced constriction of isolated tracheal smooth muscle of guinea pig; conditions: isolated guinea pig trachea; for pd'2 value against serotonin: 15 min
Description: as §1
[modified method of J. C.
as §2, §3, §4, §5
A pd'2 value was calculated [J. M. Van Rossum: Arch. Int. […] The higher the pA2 or pd'2 value, respectively were, the higher was the antagonistic effect.

SMILES: COc1ccc2cc([C@H](C)C(=O)O)ccc2c1 [Naproxen, reference compound]
Protective effect % in the 30th minute ([1]; oral dose 30 mg/kg (Naproxen)): 2.2% | Protective effect % ([2]; 1.5 hours): 33.2% | Protective effect % ([2]; 3 hours): 44.3% | Protective effect % ([2]; 4.5 hours): 40.4% | Protective effect % ([3]; oral dose 20 mg/kg (Naproxen), 30 minutes): 16.9% | Protective effect % ([3]; oral dose 20 mg/kg (Naproxen), 60 minutes): 20.1% | Protective effect % ([3]; oral dose 20 mg/kg (Naproxen), 90 minutes): 18.9% | Protective effect % ([3]; oral dose 20 mg/kg (Naproxen), 120 minutes): 23.3% | Protective effect % ([3]; oral dose 20 mg/kg (Naproxen), 180 minutes): 21.6%

SMILES: Cn1c(=O)c2[nH]cnc2n(C)c1=O [theophylline, reference compound]
pd'2 value against serotonin [6]: 6.16 | pd'2 value against serotonin ([6]; listed as Theophylline): 6.49 | IC50 [4]: 0.372 µM | IC50 [5]: 1.58 µM

SMILES: NC1=NN(c2cccc(C(F)(F)F)c2)CC1 [BW 755C, reference compound]
Protective effect % in the 30th minute ([1]; oral dose 50 mg/kg (BW 755C)): 52.9% | Protective effect % ([3]; oral dose 50 mg/kg (BW-755C), 30 minutes): 15.4% | Protective effect % ([3]; oral dose 50 mg/kg (BW-755C), 60 minutes): 12.3% | Protective effect % ([3]; oral dose 50 mg/kg (BW-755C), 90 minutes): 17.2% | Protective effect % ([3]; oral dose 50 mg/kg (BW-755C), 120 minutes): 7.9% | Protective effect % ([3]; oral dose 50 mg/kg (BW-755C), 180 minutes): 11.3%

SMILES: C[C@@H]1C[C@H]2[C@@H]3CCC4=CC(=O)C=C[C@]4(C)[C@@]3(F)[C@@H](O)C[C@]2(C)[C@@]1(O)C(=O)CO [Dexamethasone, dexamethasone, reference compound]
Protective effect % in the 30th minute ([1]; oral dose 0.5 mg/kg (Dexamethasone)): 45.5% | Protective effect % ([3]; oral dose 0.5 mg/kg (dexamethasone), 30 minutes): 42.7% | Protective effect % ([3]; oral dose 0.5 mg/kg (dexamethasone), 60 minutes): 36.8% | Protective effect % ([3]; oral dose 0.5 mg/kg (dexamethasone), 90 minutes): 51.1% | Protective effect % ([3]; oral dose 0.5 mg/kg (dexamethasone), 120 minutes): 52.1% | Protective effect % ([3]; oral dose 0.5 mg/kg (dexamethasone), 180 minutes): 45.5%

SMILES: CCOc1cc2c(cc1OCC)C(=C(C#N)SCC(CN1CCOCC1)OC(C)=O)NCC2 (centres unmarked) [Example 24, 2-(6,7-diethoxy-1,2,3,4-tetrahydro-1-isoquinolinylidene)-2-[2-acetoxy-3-(4-morpholinyl)propyl]mercaptoacetonitrile]
IC50 ([6]; Cavia porcellus, 0.25 h, read-out: pd'2 value against serotonin (converted)): 8.91 µM | IC50 [4]: 9.55 µM | change in vivo at 50 mg/kg ([2]; 1.5 hours): -25.8% | change in vivo at 50 mg/kg ([2]; 3 hours): -20.3% | change in vivo at 50 mg/kg ([2]; 4.5 hours): -20% | IC50 [5]: 1.17 µM

Further lines, with some results ahead:

IC50 [4]: 15.5 µM | IC50 [5]: 8.71 µM
SMILES: CCOc1cc2c(cc1OCC)C(=C(C#N)SCC(CN1CCOCC1)OC(=O)c1ccccc1)NCC2 (centres unmarked) [Example 26, 2-(6,7-diethoxy-1,2,3,4-tetrahydro-1-isoquinolinylidene)-2-[2-benzoyloxy-3-(4-morpholinyl)-propyl]mercaptoacetonitrile hydrochloride]

IC50 [5]: 26.3 µM
SMILES: N#CC(SCC(O)CN1CCCCC1)=C1NCCc2ccccc21 (centres unmarked) [Example 14, 2-(1,2,3,4-tetrahydro-1-isoquinolinylidene)-2-[2-hydroxy-3-(1-piperidinyl)propyl]mercaptoacetonitrile]
Percentage of inhibition of the active local anaphylactic reaction [1]: -44.1% | change in vivo at 50 mg/kg ([2]; 1.5 hours): -20.9% | change in vivo at 50 mg/kg ([2]; 3 hours): -20% | change in vivo at 50 mg/kg ([2]; 4.5 hours): -20%

IC50 [5]: 1.82 µM
SMILES: COc1cc2c(cc1OC)C(=C(C#N)SCC(O)CN1CCOCC1)NCC2 (centres unmarked) [Example 17, 2-(6,7-dimethoxy-1,2,3,4-tetrahydro-1-isoquinolinylidene)-2-[2-hydroxy-3-(4-morpholinyl)propyl]mercaptoacetonitrile hydrochloride]
Percentage of inhibition of the active local anaphylactic reaction [1]: -53.4% | change in vivo at 50 mg/kg ([2]; 1.5 hours): -4.2% | change in vivo at 50 mg/kg ([2]; 3 hours): 0% | change in vivo at 50 mg/kg ([2]; 4.5 hours): 0% | Percentage of inhibition ([3]; 30 minutes): 27.5% | Percentage of inhibition ([3]; 60 minutes): 32.5% | Percentage of inhibition ([3]; 90 minutes): 32.1% | Percentage of inhibition ([3]; 120 minutes): 32.4% | Percentage of inhibition ([3]; 180 minutes): 20.3%

IC50 [4]: 15.5 µM | IC50 [5]: 0.417 µM
SMILES: COc1cc2c(cc1OC)C(=C(C#N)SCC(CN1CCOCC1)OC(=O)c1ccccc1)NCC2 (centres unmarked) [Example 25, 2-(6,7-dimethoxy-1,2,3,4-tetrahydro-1-isoquinolinylidene)-2-[2-benzoyloxy-3-(4-morpholinyl)propyl]mercaptoacetonitrile]
change in vivo at 50 mg/kg ([2]; 1.5 hours): -26.6% | change in vivo at 50 mg/kg ([2]; 3 hours): -17.7% | change in vivo at 50 mg/kg ([2]; 4.5 hours): -16%

IC50 [5]: 15.5 µM
SMILES: COc1cc2c(cc1OC)C(=C(C#N)SCC(O)CN1CCCC1)NCC2 (centres unmarked) [Example 12, 2-(6,7-dimethoxy-1,2,3,4-tetrahydro-1-isoquinolinylidene)-2-[2-hydroxy-3-(1-pyrrolidinyl)propyl]mercaptoacetonitrile hydrochloride hemihydrate]
change in vivo at 50 mg/kg ([2]; 1.5 hours): -27.2% | change in vivo at 50 mg/kg ([2]; 3 hours): -18.9% | change in vivo at 50 mg/kg ([2]; 4.5 hours): -17.6% | Percentage of inhibition ([3]; 30 minutes): -20.2% | Percentage of inhibition ([3]; 60 minutes): -15.6% | Percentage of inhibition ([3]; 90 minutes): -14.7% | Percentage of inhibition ([3]; 120 minutes): -14.6% | Percentage of inhibition ([3]; 180 minutes): -12.6%
